According to patent US12180192B2, “Modulators of THR-β and methods of use thereof” (ALIGOS THERAPEUTICS, INC., priority 2019, dated 2024):

Legend:
[1] = biological target: T1, human thyroid receptor alpha ligand-binding domain (LBD) (Homo sapiens, UniProt P10827); experiment: TR-FRET thyroid receptor alpha coactivator assay (THR biochemical assay, Assay 1); conditions: for EC50: Table 4, THR-alpha, read-out: Activity category Assay 1 (EC50, THR-alpha agonist activity); for Emax: Table 5, THRα, read-out: Activity category Assay 1 THRα (Emax)
T1 construct: purchased Invitrogen
Method in brief: (§1)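 Agonist-driven coactivator recruitment measured by TR-FRET: terbium anti-GST antibody (2 nM) bound to GST-LBD of TRβ or TRα (1 nM final, stated for β), with fluorescein SRC2-2 peptide at 200 nM. Compounds at 1% DMSO. Read after 1 h, room temperature, protected from light.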

THR alpha = biological target: T2, THR alpha (Homo sapiens, UniProt P10827); experiment: HEK293T THR alpha/RXR luciferase reporter assay (Assay 2); assay type: cell-based; conditions: Assay 2; for Emax: HEK-293T, Table 5, THRα, read-out: Activity category Assay 2 THRα (Emax); for EC50: Table 4, THR-alpha, read-out: Activity category Assay 2 (EC50, THR-alpha agonist activity)
T2 construct: expressed in transfected cells; host or cells: HEK293T (ATCC CRL-3216)
T2 sequence (P10827 1-410 isoform P10827-2): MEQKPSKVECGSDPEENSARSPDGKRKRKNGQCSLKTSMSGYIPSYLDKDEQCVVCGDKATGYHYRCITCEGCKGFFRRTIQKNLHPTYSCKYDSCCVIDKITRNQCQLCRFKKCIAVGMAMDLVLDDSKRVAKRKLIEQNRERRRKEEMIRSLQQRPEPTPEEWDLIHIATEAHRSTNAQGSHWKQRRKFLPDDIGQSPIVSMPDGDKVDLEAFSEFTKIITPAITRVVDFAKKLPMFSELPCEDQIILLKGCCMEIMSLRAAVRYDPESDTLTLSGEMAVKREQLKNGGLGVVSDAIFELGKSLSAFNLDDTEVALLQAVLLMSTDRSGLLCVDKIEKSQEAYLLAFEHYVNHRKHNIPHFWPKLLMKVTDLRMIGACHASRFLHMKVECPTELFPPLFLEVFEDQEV
T2 sequence (P19793 1-462 partner): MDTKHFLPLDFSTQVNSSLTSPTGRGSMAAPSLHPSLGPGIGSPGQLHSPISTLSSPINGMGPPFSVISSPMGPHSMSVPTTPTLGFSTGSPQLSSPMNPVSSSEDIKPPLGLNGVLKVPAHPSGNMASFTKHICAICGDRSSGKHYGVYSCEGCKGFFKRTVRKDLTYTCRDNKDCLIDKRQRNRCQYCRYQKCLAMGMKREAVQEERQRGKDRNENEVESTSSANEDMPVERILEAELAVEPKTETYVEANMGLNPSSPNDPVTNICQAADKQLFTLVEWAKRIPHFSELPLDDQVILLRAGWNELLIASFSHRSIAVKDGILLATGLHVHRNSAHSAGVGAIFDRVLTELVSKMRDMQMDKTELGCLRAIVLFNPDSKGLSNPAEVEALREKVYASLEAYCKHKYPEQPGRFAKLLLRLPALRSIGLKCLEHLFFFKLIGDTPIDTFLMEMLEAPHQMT
Method in brief: (§2)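 Compounds tested as ten-point five-fold dilution series for 18-24 h on transiently transfected HEK293T cells carrying TRE-driven luciferase plus RXR and either THR alpha or beta expression plasmids. Read-out by One-Glo luminescence, expressed as percent agonism relative to negative and positive controls.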

[2] = biological target: T3, human thyroid receptor beta ligand-binding domain (LBD) (Homo sapiens, UniProt P10828); experiment: TR-FRET thyroid receptor beta coactivator assay (THR biochemical assay, Assay 1); conditions: for EC50: THR-beta, TR-FRET coactivator assay, read-out: Activity category Assay 1 (EC50, THR-beta agonist); for Emax: Table 5, Assay 1, THRβ, read-out: Activity category Assay 1 THRβ (Emax)
T3 construct: purchased Invitrogen
T3 sequence (P10828 217-461 limits assumed): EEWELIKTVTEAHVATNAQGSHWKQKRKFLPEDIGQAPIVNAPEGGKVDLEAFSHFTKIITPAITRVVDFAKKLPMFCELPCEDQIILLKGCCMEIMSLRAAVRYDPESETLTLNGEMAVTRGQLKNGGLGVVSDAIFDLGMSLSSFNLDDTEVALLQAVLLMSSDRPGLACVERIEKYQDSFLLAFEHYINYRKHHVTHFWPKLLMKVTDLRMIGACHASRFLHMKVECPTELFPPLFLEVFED
Method in brief: as §1

THR beta = biological target: T4, THR beta (Homo sapiens, UniProt P10828); experiment: HEK293T THR beta/RXR luciferase reporter assay (Assay 2); assay type: cell-based; conditions: for Emax: HEK-293T, Table 5, Assay 2, THRβ, read-out: Activity category Assay 2 THRβ (Emax); for EC50: THR-beta, HEK293T reporter assay, read-out: Activity category Assay 2 (EC50, THR-beta agonist)
T4 construct: expressed in transfected cells; host or cells: HEK293T (ATCC CRL-3216)
T4 sequence (P10828 1-461): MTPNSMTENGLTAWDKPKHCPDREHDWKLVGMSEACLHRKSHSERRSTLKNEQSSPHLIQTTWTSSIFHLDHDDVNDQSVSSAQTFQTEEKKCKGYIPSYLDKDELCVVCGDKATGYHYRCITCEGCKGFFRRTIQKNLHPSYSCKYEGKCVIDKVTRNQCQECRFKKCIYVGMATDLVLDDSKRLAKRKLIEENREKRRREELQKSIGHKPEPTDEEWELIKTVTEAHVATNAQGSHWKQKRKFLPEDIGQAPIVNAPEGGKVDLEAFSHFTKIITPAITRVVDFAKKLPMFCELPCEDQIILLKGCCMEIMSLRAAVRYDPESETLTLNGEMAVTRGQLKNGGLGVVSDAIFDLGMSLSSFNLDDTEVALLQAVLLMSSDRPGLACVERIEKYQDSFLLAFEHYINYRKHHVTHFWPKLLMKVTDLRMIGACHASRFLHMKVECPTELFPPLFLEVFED
T4 sequence (P19793 1-462 partner): T2 sequence (P19793 1-462 partner)
Method in brief: as §2

Row | Structure (SMILES) | EC50 [1] [nM] | Emax [1] [%] | Emax (THR alpha) [%] | EC50 (THR alpha) [nM] | EC50 [2] [nM] | Emax [2] [%] | Emax (THR beta) [%] | EC50 (THR beta) [nM]
1 | CC(c1cc(Oc2c(Cl)cc(-n3nc(N)c(=O)[nH]c3=O)cc2Cl)n[nH]c1=O)C1CC(F)(F)C1 (centres unmarked) [Compound 61, 6-amino-2-[3,5-dichloro-4-([5-[1-(3,3-difluorocyclobutyl)ethyl]-6-oxo-1H-pyridazin-3-yl]oxy)phenyl]-4H-1,2,4-tri-azine-3,5-dione] | 250 to 1000 | 50 to 75 | > 75 | 250 to 1000 | < 50 | < 50 | > 75 | 50 to 250
2 | Nc1nn(-c2cc(Cl)c(Oc3cc(-c4ccccc4)c(=O)[nH]n3)c(Cl)c2)c(=O)[nH]c1=O [Compound 63, 6-amino-2-[3,5-dichloro-4-[(6-hydroxy-5-phenylpyridazin-3-yl)oxy]phenyl]-4H-1,2,4-triazine-3,5-dione] | 250 to 1000 | < 50 | 50 to 75 | 250 to 1000 | 50 to 250 | < 50 | > 75 | 50 to 250
3 | Nc1nn(-c2cc(Cl)c(Oc3n[nH]c(=O)cc3-c3ccccc3)c(Cl)c2)c(=O)[nH]c1=O [Compound 63-A, 6-amino-2-(3,5-dichloro-4-((6-oxo-4-phenyl-1,6-dihydropyridazin-3-yl)oxy)phenyl)-1,2,4-triazine-3,5(2H,4H)-dione] | > 25000 | < 50 | < 50 | > 10000 | > 25000 | < 50 | < 50 | > 10000
4 | Cc1cccc(-c2cc(Oc3c(Cl)cc(-n4nc(N)c(=O)[nH]c4=O)cc3Cl)n[nH]c2=O)c1F [Compound 64, 6-amino-2-(3,5-dichloro-4-[[5-(2-fluoro-3-methylphenyl)-6-oxo-1H-pyridazin-3-yl]oxy]phenyl)-4H-1,2,4-triazine-3,5-dione] | 250 to 1000 | < 50 | < 50 | 250 to 1000 | < 50 | < 50 | 50 to 75 | 50 to 250
5 | Nc1nn(-c2cc(Cl)c(Oc3cc(Cc4ccccc4)c(=O)[nH]n3)c(Cl)c2)c(=O)[nH]c1=O [Compound 65, 6-amino-2-[4-[(5-benzyl-6-hydroxypyridazin-3-yl)oxy]-3,5-dichlorophenyl]-4H-1,2,4-triazine-3,5-dione] | 250 to 1000 | < 50 | < 50 | 1000 to 10000 | < 50 | < 50 | > 75 | 50 to 250
6 | Cc1cc(-n2nc(C#N)c(=O)[nH]c2=O)cc(C)c1Cc1cnc2[nH]cc(C(C)C)c2n1 [Compound 66, 2-[4-[(7-isopropyl-5H-pyrrolo[2,3-b]pyrazin-2-yl)methyl]-3,5-dimethyl-phenyl]-3,5-dioxo-1,2,4-triazine-6-carbonitrile] | 250 to 1000 | < 50 | 50 to 75 | 1000 to 10000 | 50 to 250 | 50 to 75 | > 75 | 1000 to 10000
7 | Nc1nn(-c2cc(Cl)c(Oc3cc(-c4cccc(Cl)c4)c(=O)[nH]n3)c(Cl)c2)c(=O)[nH]c1=O [Compound 68, 6-Amino-2-(3,5-dichloro-4-((5-(3-chlorophenyl)-6-oxo-1,6-dihydropyridazin-3-yl)oxy)phenyl)-1,2,4-triazine-3,5(2H,4H)-dione] | 50 to 250 | < 50 | 50 to 75 | 50 to 250 | < 50 | 50 to 75 | > 75 | < 50
8 | Nc1nn(-c2cc(Cl)c(Oc3cc(-c4cccc(F)c4)c(=O)[nH]n3)c(Cl)c2)c(=O)[nH]c1=O [Compound 69, 6-Amino-2-(3,5-dichloro-4-((5-(3-fluorophenyl)-6-oxo-1,6-dihydropyridazin-3-yl)oxy)phenyl)-1,2,4-triazine-3,5(2H,4H)-dione] | 250 to 1000 | < 50 | 50 to 75 | 50 to 250 | 50 to 250 | < 50 | 50 to 75 | 50 to 250
9 | CCc1cccc(-c2cc(Oc3c(Cl)cc(-n4nc(N)c(=O)[nH]c4=O)cc3Cl)n[nH]c2=O)c1 [Compound 71, 6-Amino-2-(3,5-dichloro-4-((5-(3-ethylphenyl)-6-oxo-1,6-dihydro-pyridazin-3-yl)oxy)phenyl)-1,2,4-triazine-3,5(2H,4H)-dione] | 50 to 250 | < 50 | 50 to 75 | 50 to 250 | < 50 | < 50 | > 75 | < 50
10 | CC(C)(C)c1cc(Oc2c(Cl)cc(-n3nc(N)c(=O)[nH]c3=O)cc2Cl)n[nH]c1=O [Compound 73, 6-Amino-2-(4-((5-(t-butyl)-6-oxo-1,6-dihydropyridazin-3-yl)oxy)-3,5-dichlorophenyl)-1,2,4-triazine-3,5(2H, 4H)-dione] | 250 to 1000 | 50 to 75 | > 75 | 250 to 1000 | 50 to 250 | < 50 | > 75 | 50 to 250
11 | CC1(C)C(=O)Nc2nnc(Oc3c(Cl)cc(-n4nc(C#N)c(=O)[nH]c4=O)cc3Cl)cc21 [Compound 74, 2-[3,5-dichloro-4-[(5,5-dimethyl-6-oxo-7H-pyrrolo[2,3-c]pyridazin-3-yl)oxy]phenyl]3,5-dioxo-1,2,4-triazine-6-carbonitrile] | 1000 to 25000 | < 50 | < 50 | > 10000 | 1000 to 25000 | 50 to 75 | < 50 | > 10000
12 | CC(C)c1n[nH]c2nnc(Oc3c(Cl)cc(-n4nc(N)c(=O)[nH]c4=O)cc3Cl)cc12 [Compound 75, 6-amino-2-(3,5-dichloro-4-((3-isopropyl-1H-pyrazolo[3,4-c]pyridazin-5-yl)oxy)phenyl)-1,2,4-triazine-3,5 (2H,4H)-dione] | 50 to 250 | > 75 | > 75 | 250 to 1000 | < 50 | > 75 | > 75 | < 50
13 | CC1(C)CC(c2cc(Oc3c(Cl)cc(-n4nc(N)c(=O)[nH]c4=O)cc3Cl)n[nH]c2=O)CCO1 (centres unmarked) [Compound 76, 6-Amino-2-(3,5-dichloro-4-((5-(2,2-dimethyltetrahydro-2H-pyran-4-yl)-6-oxo-1,6-dihydropyridazin-3-yl)oxy)phenyl)-1,2,4-triazine-3,5(2H, 4H)-dione] | > 25000 | < 50 | < 50 | > 10000 | 1000 to 25000 | < 50 | 50 to 75 | 250 to 1000
